Test results reported in article PMC10794144, “A novel antibiotic class targeting the lipopolysaccharide transporter” (Nature, 2024).
Converted amounts (≈) assume the structure as drawn. Like-named read-outs stand apart in the source and are kept apart here.

Legend:
[1] = tested on: K. pneumoniae ATCC 700603; test: microbe, parasite or virus in culture
In short: (§1)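 CLSI broth microdilution (M07/M100); inoculum from 0.5 McFarland suspension diluted in CAMHB; MIC = lowest concentration with no visible growth or where OD600 stops falling.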

A. baumannii = test: microbe, parasite or virus in culture
In short: as §1

CN1C(=O)[C@H](CCCCN)NC(=O)[C@H](CCCN)NCc2cccnc2Sc2c(Cl)ccc(Cl)c2CNC(=O)[C@@H]1Cc1c[nH]c2ccccc12 [RO7075573]
MIC ([1]; Klebsiella pneumoniae, ATCC700603): > 64 µg/mL
MIC 100% ([1]; Study LGC281440): 32 µg/mL (≈ 43.3 µM)
MIC 100% ([1]; Study LGC282160): >64 µg/mL
MIC 100% ([1]; Study LGC284879): >64 µg/mL
MIC 100% ([1]; Study LGC285582): >64 µg/mL
MIC 100% ([1]; Study LGC286210): >64 µg/mL
MIC 100% ([1]; Study LGC293598): >64 µg/mL
MIC 100% ([1]; Study LGC294355): >64 µg/mL
MIC 100% ([1]; Study LGC295147): >64 µg/mL
MIC 100% ([1]; Study LGC296813): >64 µg/mL
MIC 100% ([1]; Study LGC299544): >64 µg/mL
MIC 100% ([1]; Study LGC301026): >64 µg/mL
MIC 100% ([1]; Study LGC308175): >64 µg/mL
MIC 100% ([1]; Study ROC010): >64 µg/mL
MIC 100% ([1]; Study ROC012): >64 µg/mL
MIC 80% (A. baumannii; ATCC 17978, Study LGC301026): 0.12 µg/mL (≈ 0.162 µM)
MIC 100% (A. baumannii; ATCC 17978, Study LGC301026): 0.12 µg/mL (≈ 0.162 µM)
MIC 80% (A. baumannii; ATCC 17978, Study LGC308175): ≤0.06 µg/mL
MIC 100% (A. baumannii; ATCC 17978, Study LGC308175): ≤0.06 µg/mL
MIC 80% (A. baumannii; ATCC 19606, Study LGC281440): 0.12 µg/mL (≈ 0.162 µM)
MIC 100% (A. baumannii; ATCC 19606, Study LGC281440): 0.12 µg/mL (≈ 0.162 µM)
MIC 80% (A. baumannii; ATCC 19606, Study LGC282160): 0.25 µg/mL (≈ 0.338 µM)
MIC 100% (A. baumannii; ATCC 19606, Study LGC282160): 0.25 µg/mL (≈ 0.338 µM)
MIC 80% (A. baumannii; ATCC 19606, Study LGC284879): 0.25 µg/mL (≈ 0.338 µM)
MIC 100% (A. baumannii; ATCC 19606, Study LGC284879): 0.25 µg/mL (≈ 0.338 µM)
MIC 80% (A. baumannii; ATCC 19606, Study LGC285582): 0.12 µg/mL (≈ 0.162 µM)
MIC 100% (A. baumannii; ATCC 19606, Study LGC285582): 0.25 µg/mL (≈ 0.338 µM)
MIC 80% (A. baumannii; ATCC 19606, Study LGC286210): 0.12 µg/mL (≈ 0.162 µM)
MIC 100% (A. baumannii; ATCC 19606, Study LGC286210): 0.12 µg/mL (≈ 0.162 µM)
MIC 80% (A. baumannii; ATCC 19606, Study LGC293598): 0.12 µg/mL (≈ 0.162 µM)
MIC 100% (A. baumannii; ATCC 19606, Study LGC293598): 0.25 µg/mL (≈ 0.338 µM)
MIC 80% (A. baumannii; ATCC 19606, Study LGC294355): 0.12 µg/mL (≈ 0.162 µM)
MIC 100% (A. baumannii; ATCC 19606, Study LGC294355): 0.12 µg/mL (≈ 0.162 µM)
MIC 80% (A. baumannii; ATCC 19606, Study LGC295147): 0.25 µg/mL (≈ 0.338 µM)
MIC 100% (A. baumannii; ATCC 19606, Study LGC295147): 0.25 µg/mL (≈ 0.338 µM)
MIC 80% (A. baumannii; ATCC 19606, Study LGC296813): 0.12 µg/mL (≈ 0.162 µM)
MIC 100% (A. baumannii; ATCC 19606, Study LGC296813): 0.25 µg/mL (≈ 0.338 µM)
MIC 80% (A. baumannii; ATCC 19606, Study LGC299544): 0.12 µg/mL (≈ 0.162 µM)
MIC 100% (A. baumannii; ATCC 19606, Study LGC299544): 0.12 µg/mL (≈ 0.162 µM)
MIC 80% (A. baumannii; ATCC 19606, Study LGC301026): 0.12 µg/mL (≈ 0.162 µM)
MIC 100% (A. baumannii; ATCC 19606, Study LGC301026): 0.25 µg/mL (≈ 0.338 µM)
MIC 80% (A. baumannii; ATCC 19606, Study LGC308175): 0.12 µg/mL (≈ 0.162 µM)
MIC 100% (A. baumannii; ATCC 19606, Study LGC308175): 0.12 µg/mL (≈ 0.162 µM)
MIC 80% (A. baumannii; ATCC 19606, Study ROC010): 0.25 µg/mL (≈ 0.338 µM)
MIC 100% (A. baumannii; ATCC 19606, Study ROC010): 0.5 µg/mL (≈ 0.676 µM)
MIC 80% (A. baumannii; ATCC 19606, Study ROC012): 0.12 µg/mL (≈ 0.162 µM)
MIC 100% (A. baumannii; ATCC 19606, Study ROC012): 0.25 µg/mL (≈ 0.338 µM)
MIC90 (A. baumannii; Acinetobacter baumannii, 10 MDR isolates, CAMHB, MCPs read at 80% growth inhibition): 0.5 µg/mL (≈ 0.676 µM)
MIC (A. baumannii; Acinetobacter baumannii, ATCC17978, ATCC 17978, CAMHB, MCPs read at 80% inhibition): 0.12 µg/mL (≈ 0.162 µM)
MIC (A. baumannii; Acinetobacter baumannii, ATCC17978, ATCC 17978, CAMHB, one replicate, MCPs read at 80% growth inhibition): ≤ 0.06 µg/mL
MIC (A. baumannii; Acinetobacter baumannii, ATCC19606, ATCC 19606, CAMHB, MCPs read at 80% growth inhibition): 0.12 µg/mL (≈ 0.162 µM)
MIC (A. baumannii; Acinetobacter baumannii, ATCC19606, ATCC 19606, CAMHB, MCPs read at 80% inhibition): 0.12 µg/mL (≈ 0.162 µM)
MIC (A. baumannii; Acinetobacter baumannii, ROB08701, CAMHB, MCPs read at 80% inhibition): 0.12 µg/mL (≈ 0.162 µM)
MIC (A. baumannii; Acinetobacter baumannii, ROB08702, CAMHB, MCPs read at 80% inhibition): 0.12 µg/mL (≈ 0.162 µM)
MIC (A. baumannii; Acinetobacter baumannii, ROB08703, CAMHB, MCPs read at 80% inhibition): 0.25 µg/mL (≈ 0.338 µM)
MIC (A. baumannii; Acinetobacter baumannii, ROB08704, CAMHB, MCPs read at 80% inhibition): 0.5 µg/mL (≈ 0.676 µM)
MIC (A. baumannii; Acinetobacter baumannii, ROB08705, CAMHB, MCPs read at 80% inhibition): ≤ 0.06 µg/mL
MIC (A. baumannii; Acinetobacter baumannii, ROB08706, CAMHB, MCPs read at 80% inhibition): 0.5 µg/mL (≈ 0.676 µM)
MIC (A. baumannii; Acinetobacter baumannii, ROB08707, CAMHB, MCPs read at 80% inhibition): 0.12 µg/mL (≈ 0.162 µM)
MIC (A. baumannii; Acinetobacter baumannii, ROB08708, CAMHB, MCPs read at 80% inhibition): 0.12 µg/mL (≈ 0.162 µM)
MIC (A. baumannii; Acinetobacter baumannii, ROB08709, CAMHB, MCPs read at 80% inhibition): 0.12 µg/mL (≈ 0.162 µM)
MIC (A. baumannii; Acinetobacter baumannii, ROB08710, CAMHB, MCPs read at 80% inhibition): 0.12 µg/mL (≈ 0.162 µM)
MIC (A. baumannii; Acinetobacter baumannii, read-out: MIC read at 80% growth inhibition, CAMHB): 2 µg/mL (≈ 2.7 µM)
MIC (A. baumannii; Acinetobacter baumannii, read-out: MIC read at 100% growth inhibition, CAMHB): > 64 µg/mL
MIC 80% (A. baumannii; ROB08701, Study LGC281440): 0.12 µg/mL (≈ 0.162 µM)
MIC 100% (A. baumannii; ROB08701, Study LGC281440): 0.25 µg/mL (≈ 0.338 µM)
MIC 80% (A. baumannii; ROB08701, Study LGC282160): 0.12 µg/mL (≈ 0.162 µM)
MIC 100% (A. baumannii; ROB08701, Study LGC282160): 1 µg/mL (≈ 1.35 µM)
MIC 80% (A. baumannii; ROB08701, Study LGC284879): 0.25 µg/mL (≈ 0.338 µM)
MIC 100% (A. baumannii; ROB08701, Study LGC284879): 0.5 µg/mL (≈ 0.676 µM)
MIC 80% (A. baumannii; ROB08701, Study LGC285582): 0.12 µg/mL (≈ 0.162 µM)
MIC 100% (A. baumannii; ROB08701, Study LGC285582): 64 µg/mL (≈ 86.5 µM)
MIC 80% (A. baumannii; ROB08701, Study LGC286210): 0.12 µg/mL (≈ 0.162 µM)
MIC 100% (A. baumannii; ROB08701, Study LGC286210): 64 µg/mL (≈ 86.5 µM)
MIC 80% (A. baumannii; ROB08701, Study LGC293598): 0.12 µg/mL (≈ 0.162 µM)
MIC 100% (A. baumannii; ROB08701, Study LGC293598): 0.25 µg/mL (≈ 0.338 µM)
MIC 80% (A. baumannii; ROB08701, Study LGC294355): 0.12 µg/mL (≈ 0.162 µM)
MIC 100% (A. baumannii; ROB08701, Study LGC294355): 0.25 µg/mL (≈ 0.338 µM)
MIC 80% (A. baumannii; ROB08701, Study LGC295147): 0.12 µg/mL (≈ 0.162 µM)
MIC 100% (A. baumannii; ROB08701, Study LGC295147): 0.12 µg/mL (≈ 0.162 µM)
MIC 80% (A. baumannii; ROB08701, Study LGC296813): 0.12 µg/mL (≈ 0.162 µM)
MIC 100% (A. baumannii; ROB08701, Study LGC296813): 0.25 µg/mL (≈ 0.338 µM)
MIC 80% (A. baumannii; ROB08701, Study LGC299544): 0.12 µg/mL (≈ 0.162 µM)
MIC 100% (A. baumannii; ROB08701, Study LGC299544): 64 µg/mL (≈ 86.5 µM)
MIC 80% (A. baumannii; ROB08701, Study LGC301026): 0.5 µg/mL (≈ 0.676 µM)
MIC 100% (A. baumannii; ROB08701, Study LGC301026): 64 µg/mL (≈ 86.5 µM)
